Assay results as given in US20240300958A1, “COMPOUNDS AND THE USES AND PHARMACEUTICAL COMPOSITIONS THEREOF” (BEIJING YOUZHUJU NETWORK TECHNOLOGY CO. LTD., priority 2023, published 2024).

Each compound was assayed against DDR1 (Homo sapiens (Human), UniProt Q08345) (assay: DDR1 kinase inhibition assay (FAM-labeled peptide), IC50).
Chain of DDR1 (Q08345 other isoform, or with tags, fused parts or gaps isoform Q08345-2): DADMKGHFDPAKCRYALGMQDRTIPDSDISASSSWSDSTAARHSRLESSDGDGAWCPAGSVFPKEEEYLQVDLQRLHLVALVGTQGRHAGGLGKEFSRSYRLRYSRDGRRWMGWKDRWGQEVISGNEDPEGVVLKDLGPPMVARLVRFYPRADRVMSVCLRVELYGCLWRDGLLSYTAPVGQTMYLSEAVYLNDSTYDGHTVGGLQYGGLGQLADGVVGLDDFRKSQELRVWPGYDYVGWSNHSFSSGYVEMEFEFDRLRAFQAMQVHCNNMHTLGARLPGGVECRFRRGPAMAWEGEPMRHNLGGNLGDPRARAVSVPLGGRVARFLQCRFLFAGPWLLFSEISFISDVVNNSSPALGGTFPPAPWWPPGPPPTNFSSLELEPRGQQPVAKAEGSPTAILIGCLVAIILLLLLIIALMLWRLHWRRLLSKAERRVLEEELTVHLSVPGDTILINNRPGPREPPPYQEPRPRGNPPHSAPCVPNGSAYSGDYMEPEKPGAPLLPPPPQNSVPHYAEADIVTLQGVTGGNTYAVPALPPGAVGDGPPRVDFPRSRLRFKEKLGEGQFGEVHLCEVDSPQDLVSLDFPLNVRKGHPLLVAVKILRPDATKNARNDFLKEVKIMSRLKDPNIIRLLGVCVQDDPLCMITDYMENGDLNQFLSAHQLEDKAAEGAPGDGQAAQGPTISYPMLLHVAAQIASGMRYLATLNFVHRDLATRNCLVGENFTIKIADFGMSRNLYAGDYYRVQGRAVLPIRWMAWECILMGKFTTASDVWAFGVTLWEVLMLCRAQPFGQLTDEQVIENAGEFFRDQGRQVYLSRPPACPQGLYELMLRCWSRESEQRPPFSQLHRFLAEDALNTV
Assay type: biochemical
Description: 1× kinase base buffer (50 mM HEPES, pH 7.5, 0.0015% Brij-35) and a stop buffer (100 mM HEPES, pH 7.5, 0.015% Brij-35, 0.2% Coating Reagent #3, 50 mM EDTA) were prepared for testing kinases.
The compounds were diluted with 100% DMSO to 100 times the highest final inhibitor concentration required in the reaction. 100 μl of dilution of the compound was transferred to wells of a 96-well plate. For example, 100000 nM solution of the compound in DMSO was prepared in this step in case that an inhibitor concentration of 1000 nM is required. 100 μl of 100% DMSO was added to two empty wells of a 96-well plate for no compound control and no enzyme control. This plate was labeled as the source plate. A new 96-well plate with 5 μl of compound transferred from the source plate is used as an intermediate plate. 95 μl of 1× kinase buffer was added to each well of the intermediate plate. The compounds in the intermediate plate was mixed on a shaker for 10 minutes.
5 μl of sample in each well from the 96-well intermediate plate was transferred to the 384-well plate in duplicate. For example, well A1 of the 96-well plate was transferred to wells A2 and A1 of the 384-well plate, and well A2 of the 96-well plate was transferred to wells A3 and A4 of the 384-well plate, and so forth. 2.5× enzyme solution was prepared: 1× kinase basal buffer with added kinase. 2.5× peptide solution was prepared: 1× kinase basal buffer with added FAM-labeled peptide and ATP. To an assay plate already contained 5 μl of 10% dimethyl sulfoxide compound, 2.5× enzyme solution was transferred, and each well of the 384-well assay plate was added 10 μl of 2.5× enzyme solution. After incubation at room temperature for 10 minutes, 2.5× peptide solution was transferred to the assay plate. Each well of the 384-well assay plate was added 10 μl of 2.5× peptide solution. Kinase reaction and termination: incubation at 28° C. for a specified period followed by the addition of 25 μl stop buffer to stop the reaction. The data was read and collected.
In the case of Cc1ccc(C(=O)Nc2ccccn2)cc1C#Cc1cnc2cc(C3CC=CCC3)cnn12 (stereo not drawn) [Compound C4], the IC50 is reported as under 0.5 µM. Cc1ccc(C(=O)Nc2ccccn2)cc1C#Cc1cnc2cc(C3CCCC3)cnn12 [Compound C5] was tested, and the IC50 was under 0.5 µM. Cc1cc(-c2cc(C(=O)Nc3ccccn3)ccc2C)cc(-c2cnc3cc(C4=CCCCC4)cnn23)c1 [Compound C12] was tested, and the IC50 was under 0.5 µM. For Cc1ccc(C(=O)Nc2ccccn2)cc1C#Cc1cnc2cc(C3C=CCCC3)cnn12 (stereo not drawn) [Compound C3], the IC50 was under 0.5 µM. For Cc1ccc(C(=O)Nc2ccccn2)cc1C#Cc1cnc2cc(C3C=CCC3)cnn12 (stereo not drawn) [Compound C7], the IC50 was under 0.5 µM. For Cc1ccc(C(=O)Nc2ccccn2)cc1-c1cccc(-c2cnc3cc(C4=CCCCC4)cnn23)c1 [Compound C11], the IC50 was under 0.5 µM. Compound CCc1ccc(C(=O)Nc2ccccn2)cc1C#Cc1cnc2cc(C3=CCCCC3)cnn12 [Compound C9] has an IC50 of under 0.5 µM. In the case of Cc1ccc(C(=O)Nc2ccccn2)cc1C#Cc1cnc2cc(C3CCCCC3)cnn12 [Compound C2], the IC50 is reported as under 0.5 µM. With Cc1ccc(C(=O)Nc2ccccn2)cc1C#Cc1cnc2cc(C3CC=CC3)cnn12 [Compound C8] the IC50 was under 0.5 µM. In the case of CC(C)c1ccc(C(=O)Nc2ccccn2)cc1C#Cc1cnc2cc(C3=CCCCC3)cnn12 [Compound C10], the IC50 is reported as under 0.5 µM. Work on Cc1ccc(C(=O)Nc2ccccn2)cc1C#Cc1cnc2cc(C3=CCCC3)cnn12 [Compound C6] yielded an IC50 of under 0.5 µM. With O=C(N[C@H]1CC[C@H](O)CC1)c1ccc2ccc(-c3ccc(NC4CCCCC4)cc3)cc2n1 [DC1, reference compound] the IC50 was over 1 µM.
